One assay deals with Botrytis cinerea. The experiment in a line: Treatment of wounded sweet peppers inoculated with Botrytis cinerea (Examples 9, 10). It is filed as in vivo. Conditions: 20° C., 400 ppm natamycin. On the procedure: Ten fresh, organic sweet peppers were used per treatment. Each sweet pepper was soaked in a 180 ppm hypochlorite solution for 10 minutes, then rinsed thoroughly with fresh tap water and dried. The peel of each disinfected sweet pepper was wounded once using a cork borer according to the method described by de Lapeyre de Bellaire and Dubois (1987). Subsequently, each wound was inoculated with 10 μl of a Botrytis cinerea suspension containing 1×10^5 of spores/ml. After incubation for 3 hours at 20° C., each wound and the skin area of 0.5 cm around the wound was treated with in total 75 μl of a freshly prepared aqueous antifungal composition comprising either 400 ppm natamycin (DSM Food Specialties, Delft, The Netherlands), 600 ppm fenhexamid or both. Each antifungal composition also comprised 3.2% (w/w) beeswax, 0.8% (w/w) glycerol, 0.7% (w/w) polyoxyethylene sorbitan monostearate (Tween 60), 0.2% (w/w) polyoxyethylene sorbitan monooleate (Tween 80), 0.05% (w/w) methylhydroxyethyl-cellulose (MHEC), 0.03% (w/w) anti-foaming agent, 0.02% (w/w) xanthan gum, 0.02% (w/w) citric acid, 0.01% (w/w) lactic acid and 0.01% potassium sorbate. A composition without natamycin or fenhexamid was used as control.
The treated sweet peppers were incubated in a closed box in the dark at 20° C. and assessed on mould growth during a 26-day incubation period. The antifungal activity (in %) of the individual and combined active ingredients was determined by calculating the reduction in mould growth observed on the sweet peppers treated with the antifungal composition in comparison to the mould growth on the sweet peppers treated with the control composition according to the Colby method (Colby, 1967) described in Example 5.
The experiment was conducted as described in Example 9, except for the fact that each wounded and inoculated sweet pepper was treated with 75 μl of a freshly prepared aqueous antifungal composition comprising either 400 ppm natamycin (DSM Food Specialties, Delft, The Netherlands), 800 ppm carboxin or both. The treated sweet peppers were incubated in a closed box in the dark at 20° C. and assessed on mould growth during a 26-day incubation period. During incubation, the treated sweet peppers were assessed on mould growth according to the method described in Example 9.

In the next assay the test system is Penicillium italicum. Briefly: Treatment of wounded oranges inoculated with Penicillium italicum (Examples 7, 8). It is filed as in vivo. Conditions: 20° C., 250 ppm natamycin, 400 ppm boscalid or both. On the procedure:
Ten fresh, organic oranges were used per treatment. Each orange was soaked in a 180 ppm hypochlorite solution for 10 minutes, then rinsed thoroughly with fresh tap water and dried. The peel of each disinfected orange was wounded once using a cork borer according to the method described by de Lapeyre de Bellaire and Dubois (1987). Subsequently, each wound was inoculated with 10 μl of a Penicillium italicum suspension containing 1×10^5 of spores/ml. After incubation for 3 hours at 20° C., each wound and the orange peel area of 1 cm around the wound was treated with in total 150 μl of a freshly prepared aqueous antifungal composition comprising either 500 ppm natamycin (DSM Food Specialties, Delft, The Netherlands), 800 ppm boscalid or both. Each antifungal composition also comprised 3.2% (w/w) beeswax, 0.8% (w/w) glycerol, 0.7% (w/w) polyoxyethylene sorbitan monostearate (Tween 60), 0.2% (w/w) polyoxyethylene sorbitan monooleate (Tween 80), 0.05% (w/w) methylhydroxyethyl-cellulose (MHEC), 0.03% (w/w) anti-foaming agent, 0.02% (w/w) xanthan gum, 0.02% (w/w) citric acid, 0.01% (w/w) lactic acid and 0.01% potassium sorbate. A composition without natamycin or boscalid was used as control. […] The treated oranges were incubated in a closed box in the dark at 20° C. and assessed on mould growth during a 17-day incubation period. The antifungal activity (in %) of the individual and combined active ingredients was determined by calculating the reduction in mould growth observed on the oranges treated with the antifungal composition in comparison to the mould growth on the oranges treated with the control composition according to the Colby method (Colby, 1967) described in Example 5.
The experiment was conducted as described in Example 7, except for the fact that each wounded and inoculated orange was treated with 150 μl of a freshly prepared aqueous antifungal composition comprising either 250 ppm natamycin (DSM Food Specialties, Delft, The Netherlands), 400 ppm boscalid or both. The treated oranges were incubated in a closed box in the dark at 20° C. and assessed on mould growth during a 18-day incubation period. During incubation, the treated oranges were assessed on mould growth according to the method described in Example 7.

`C[C@@H]1C/C=C/C=C/C=C/C=C/[C@H](O[C@@H]2O[C@H](C)[C@@H](O)[C@H](N)[C@@H]2O)C[C@@H]2O[C@](O)(C[C@@H](O)C[C@H]3O[C@@H]3/C=C/C(=O)O1)C[C@H](O)[C@H]2C(=O)O` [Natamycin, natamycin]: the “Observed antifungal activity O (%)” value with Botrytis cinerea (13-17 days, 600 ppm fenhexamid or both) was 86%; with Botrytis cinerea (17-19 days, 800 ppm carboxin or both) it was 86%; with Botrytis cinerea (18-22 days, 600 ppm fenhexamid or both), 86%; in the assay with Botrytis cinerea (20-21 days, 800 ppm carboxin or both), 87%; in the assay with Botrytis cinerea (6 days, 600 ppm fenhexamid or both), 95%; in the assay on Botrytis cinerea (8 days, 600 ppm fenhexamid or both) it was 94%. In addition, the “Observed antifungal activity O (%)” value amounted to 89% in the assay on Botrytis cinerea (10 days, 600 ppm fenhexamid or both); 87% with Botrytis cinerea (11 days, 600 ppm fenhexamid or both); 85% with Botrytis cinerea (22 days, 800 ppm carboxin or both); 83% in the assay on Botrytis cinerea (24 days, 600 ppm fenhexamid or both); 83% in the assay on Botrytis cinerea (24 days, 800 ppm carboxin or both); 82% in the assay on Botrytis cinerea (25 days, 600 ppm fenhexamid or both). The “Observed antifungal activity O (%)” value in the assay on Botrytis cinerea (25 days, 800 ppm carboxin or both) is on record as 82%; in the assay on Botrytis cinerea (26 days, 600 ppm fenhexamid or both) it was 79%; in the assay with Botrytis cinerea (26 days, 800 ppm carboxin or both), 79%; in the assay with Penicillium italicum (11 days) it was 69%; in the assay with Penicillium italicum (12 days), 66%; in the assay on Penicillium italicum (13 days) it was 62%. In addition, the results for the “Observed antifungal activity O (%)” value in the assay with Penicillium italicum (14 days), in the assay with Penicillium italicum (17 days) and in the assay on Penicillium italicum (18 days) were 51%, 39% and 34%, respectively.

For the origin of these results see US20150157021A1, “NEW ANTIFUNGAL COMPOSITIONS” (DSM IP ASSETS B.V., priority 2012, published 2015).
